Assay results published in US8622991B2, “Method and device for drug delivery” (Insuline Medical Ltd., priority 2007, dated 2014).

Experiments:
[1] = euglycemic glucose clamp study (Glucose Infusion Rate) after insulin pump bolus, with and without heating device; assay type: in vivo, human; conditions: FIG. 26a; for time to peak action (GIR): insulin bolus 0.15 U/kg by pump
Description: The infusion set includes a tube 44 and a catheter 47, which is inserted into the subcutaneous tissue. […] The controller unit has a switch/button 48 for manual operation and two indicators 49 for “treatment is on” and for battery status. The two components are connected by wires 43.
The controller monitors the electromagnetic emission from the pump. During a bolus mode, the pump emits a well defined series of electromagnetic pulses at constant rate, shown as arrows 42. […] The temperature of the heater is controlled by the controller using a temperature sensor 45 located on the heating element.
The flat heating element used in this example has several layers. The upper layer is a polyethylene layer which seals the element. Below that layer, there is an etched circuit, below which there is a copper layer for heat distribution and mechanical support. Below that layer, there is another sealing polyethylene layer, below which there is an adhesive tape from 3M® which is bio-compatible. The heater has a thickness of less than 0.2 mm and his diameter is 3 cm. Thin electric wires of length of 60 cm with small connectors at both ends connected the heater to the controller unit. The power used for the heating can be 2 Watts. The heating was turned on and off by the controller to stabilize the skin temperature at 39° C. The heat duration was set to 30 minutes, after which the temperature regulation was stopped.
The subject lied down in supine position.
The above described procedure was performed in the same subjects under the same conditions with and without using the heating device. The two graphs show the GIR in glucose milligrams per minutes per subject's kg vs. time. […] There are many attempts to compose such an “artificial pancreas” since the development of continuous glucose monitors. […] Thus, another use of the methods and devices by the present invention is to combine them with a glucose sensor, insulin delivery device and a control algorithm to provide a better accuracy and robustness of a closed loop glucose level control system.

[2] = temperature to which the insulin can be exposed (insulin infused tissue region); cited from earlier work

For insulin, the “time to peak action (GIR)” value ([1]; with heating (skin 39° C., 30 minutes), same subject) was 50 min, the “GIR decrease (indication for insulin clearance out of the circulation and cessation of systemic effects)” value ([1]; with heating compared to without heating, same subject) was “much faster” and the “time to peak action (GIR)” value ([1]; without heating, typical result in one diabetic subject) was 75 min.

In the case of Insulin aspart [Novolog], the maximal limiting temperature [2] is listed as 37 °C.
